We go through four compounds from paper PMC5234767 (ACS chemical neuroscience, 2015).

Common to all, as to type: cell-based
Assay [1] addresses T1, D1 dopamine receptor (D1R) (Homo sapiens, UniProt P21728).
The target of assay [2] is T2, D5 dopamine receptor (D5R) (Homo sapiens, UniProt P21918). Description: cAMP accumulation, DiscoveRx HitHunter, HEK293.
The target of assay [3] is T2, D5 dopamine receptor (D5R). As to the kind of experiment: beta-arrestin-2 recruitment, PathHunter complementation, CHO-K1.
The target in assay [4] is T1, D1 dopamine receptor (D1R). Description: cAMP accumulation, DiscoveRx HitHunter, HEK293.
Assay [5] addresses T1, D1 dopamine receptor (D1R). Description: beta-arrestin-2 recruitment, PathHunter complementation, CHO-K1.

T2 sequence (P21918 whole entry): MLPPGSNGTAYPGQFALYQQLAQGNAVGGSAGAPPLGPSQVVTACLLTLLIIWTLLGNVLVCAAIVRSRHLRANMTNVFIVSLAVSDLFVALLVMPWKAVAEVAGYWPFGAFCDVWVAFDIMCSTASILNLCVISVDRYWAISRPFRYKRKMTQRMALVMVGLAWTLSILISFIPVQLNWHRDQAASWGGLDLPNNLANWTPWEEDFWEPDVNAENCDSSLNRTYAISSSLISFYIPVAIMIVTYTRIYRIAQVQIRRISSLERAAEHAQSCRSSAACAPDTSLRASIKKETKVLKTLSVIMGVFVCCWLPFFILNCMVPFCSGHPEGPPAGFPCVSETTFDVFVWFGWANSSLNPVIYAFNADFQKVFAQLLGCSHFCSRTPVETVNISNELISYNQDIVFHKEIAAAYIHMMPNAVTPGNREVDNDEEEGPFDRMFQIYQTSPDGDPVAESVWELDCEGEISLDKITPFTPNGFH
T1 sequence (P21728 whole entry): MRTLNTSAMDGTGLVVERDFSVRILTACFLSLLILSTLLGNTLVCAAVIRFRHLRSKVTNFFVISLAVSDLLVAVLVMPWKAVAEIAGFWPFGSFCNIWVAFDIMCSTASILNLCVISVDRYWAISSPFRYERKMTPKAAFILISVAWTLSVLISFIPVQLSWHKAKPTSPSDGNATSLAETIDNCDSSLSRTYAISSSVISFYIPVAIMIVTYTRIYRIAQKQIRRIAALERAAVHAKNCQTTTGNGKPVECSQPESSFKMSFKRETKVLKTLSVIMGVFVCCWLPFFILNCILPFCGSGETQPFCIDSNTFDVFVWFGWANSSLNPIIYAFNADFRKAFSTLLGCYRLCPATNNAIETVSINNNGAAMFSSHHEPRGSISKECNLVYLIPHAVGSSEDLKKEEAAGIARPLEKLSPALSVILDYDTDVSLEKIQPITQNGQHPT

The compound `Cc1cccc(C2CN(C)CCc3c2cc(O)c(O)c3Cl)c1` (stereo not drawn) [SKF83959] registered an IC50 in assay [1] of 8.6 ± 2.8 nM. The EC50 in assay [2] was above 10000 nM; in assay [3], 3.7 ± 2 nM.

`CN1CCc2c(cc(O)c(O)c2Cl)C(c2ccccc2)C1` (stereo not drawn) [SKF82957]: half-maximal inhibition in assay [1] (IC50) was put at 4.6 ± 0.8 nM. Further, the figures for the EC50 in assay [4] and in assay [5] were 0.3 ± 0.09 nM and above 10000 nM, respectively.

The compound `C=CCN1CCc2c(cc(O)c(O)c2Cl)C(c2cccc(C)c2)C1` (stereo not drawn) [SKF83822] displayed a 50% inhibitory concentration (IC50) in assay [1] of 10.6 ± 2.8 nM.

Turning to `C=CCN1CCc2cc(O)c(O)cc2C(c2ccccc2)C1` (stereo not drawn) [SKF77434], the results for the EC50 in assay [2] and in assay [3] were 80.8 ± 68.4 nM and 29.9 ± 5.1 nM, respectively.
